Measured values: patent US10065970B2 (Genentech, Inc., priority 2015, dated 2018)
pKi: −log10 of the molar value.

biological target: PI3Kα (alpha) (Homo sapiens (Human), UniProt P42336); experiment: p110α (alpha) PI3K Binding Assay (ADP-Glo lipid kinase reaction); format: biochemical; conditions: PI3K alpha 0.2 nM, ATP 40 μM, PIP2:3PS 50 μM, 120 min, room temperature; Ki by Morrison Equation; read-out: PI3Kα-(alpha) ATP (Ki) micromolar
Description: The ability of a compound of the invention to act as an inhibitor of PI3Kα was determined using the methods of Example 901.
PI3K Binding assays are intended for determining the biochemical potency of small molecule PI3K inhibitors. The PI3K lipid kinase reaction is performed in the presence of PIP2:3PS lipid substrate (Promega #V1792) and ATP. Following the termination if the kinase reaction, turnover of ATP to ADP by the phosphorylation of the lipid substrate is detected using the Promega ADP-Glo™ (Promega #V1792) assay. Reactions are carried out using the following conditions:
After 120 minutes of reaction time, the kinase reaction is terminated. Any ATP remaining after the reaction is depleted, leaving only ADP. Then the Kinase Detection Reagent is added to convert ADP to ATP, which is used in a coupled luciferin/luciferase reaction. The luminescent output is measured and is correlated with kinase activity.
All reactions are carried out at room temperature. A 3 μl mixture (1:1) of enzyme/lipid substrate solution is added to a 384 well white assay plate (Perkin Elmer #6007299) containing 50 nl of test compound or DMSO only for untreated controls. The reaction is started by the addition of 2 μl ATP/MgCl2. The kinase reaction buffer contains 50 mM HEPES, 50 mM NaCl, 3 mM MgCl2, 0.01% BSA, 1% DMSO, and enzyme and substrate concentrations as indicated in the above table. The reaction is stopped by the addition of 10 μL ADP-Glo reagent. Plates are read in a Perkin Elmer Envision system using luminescence mode. 10 point dose response curves are generated for each test compound. Ki values for each compound are determined using the Morrison Equation.

Chain of PI3Kα (alpha) (P42336 whole entry): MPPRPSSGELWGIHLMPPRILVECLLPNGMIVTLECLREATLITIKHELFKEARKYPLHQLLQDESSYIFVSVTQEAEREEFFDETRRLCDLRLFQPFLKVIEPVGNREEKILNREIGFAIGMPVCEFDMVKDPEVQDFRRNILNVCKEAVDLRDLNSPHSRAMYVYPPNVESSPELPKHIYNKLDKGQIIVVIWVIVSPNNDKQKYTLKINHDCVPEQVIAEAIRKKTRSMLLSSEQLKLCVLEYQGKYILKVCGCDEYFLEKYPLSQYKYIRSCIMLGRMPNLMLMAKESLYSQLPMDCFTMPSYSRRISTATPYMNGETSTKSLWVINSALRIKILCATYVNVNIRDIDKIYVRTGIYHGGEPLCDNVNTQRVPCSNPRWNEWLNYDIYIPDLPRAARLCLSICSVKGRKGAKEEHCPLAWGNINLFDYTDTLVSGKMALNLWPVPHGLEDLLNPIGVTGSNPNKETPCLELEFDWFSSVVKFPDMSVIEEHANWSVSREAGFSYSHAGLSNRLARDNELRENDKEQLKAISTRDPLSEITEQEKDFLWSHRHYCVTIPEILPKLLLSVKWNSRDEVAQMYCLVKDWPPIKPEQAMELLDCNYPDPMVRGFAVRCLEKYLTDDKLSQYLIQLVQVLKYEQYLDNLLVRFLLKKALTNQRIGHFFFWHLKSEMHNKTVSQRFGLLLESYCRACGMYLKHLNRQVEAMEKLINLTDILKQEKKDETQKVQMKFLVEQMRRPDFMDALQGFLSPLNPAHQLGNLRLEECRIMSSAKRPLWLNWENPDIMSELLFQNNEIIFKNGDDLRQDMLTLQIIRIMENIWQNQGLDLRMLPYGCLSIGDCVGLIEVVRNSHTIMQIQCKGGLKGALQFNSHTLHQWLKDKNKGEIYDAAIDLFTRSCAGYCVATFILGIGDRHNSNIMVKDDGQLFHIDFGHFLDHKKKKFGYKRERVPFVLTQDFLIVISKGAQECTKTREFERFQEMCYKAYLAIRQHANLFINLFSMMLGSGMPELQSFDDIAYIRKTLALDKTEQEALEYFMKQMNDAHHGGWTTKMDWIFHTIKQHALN
Chain of PI3Kα (alpha) (P27986 whole entry partner): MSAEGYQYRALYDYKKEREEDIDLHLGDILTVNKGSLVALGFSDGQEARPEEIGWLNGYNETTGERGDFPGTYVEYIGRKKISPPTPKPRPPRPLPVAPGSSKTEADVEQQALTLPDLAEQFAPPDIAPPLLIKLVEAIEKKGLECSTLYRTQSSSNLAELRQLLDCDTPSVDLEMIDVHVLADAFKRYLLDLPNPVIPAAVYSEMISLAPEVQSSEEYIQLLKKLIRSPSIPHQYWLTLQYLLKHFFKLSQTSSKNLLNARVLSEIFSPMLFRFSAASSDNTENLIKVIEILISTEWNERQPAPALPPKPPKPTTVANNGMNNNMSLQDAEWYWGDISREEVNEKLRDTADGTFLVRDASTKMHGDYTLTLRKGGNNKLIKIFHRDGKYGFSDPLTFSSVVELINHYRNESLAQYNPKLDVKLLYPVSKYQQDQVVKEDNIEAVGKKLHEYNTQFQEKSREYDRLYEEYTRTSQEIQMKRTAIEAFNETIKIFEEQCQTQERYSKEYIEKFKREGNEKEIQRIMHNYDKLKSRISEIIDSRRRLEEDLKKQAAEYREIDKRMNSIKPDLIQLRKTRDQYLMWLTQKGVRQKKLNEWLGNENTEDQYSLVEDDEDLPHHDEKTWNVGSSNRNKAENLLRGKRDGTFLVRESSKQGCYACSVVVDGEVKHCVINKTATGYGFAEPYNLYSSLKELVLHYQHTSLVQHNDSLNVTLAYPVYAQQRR

Compound | pKi
NC(=O)[C@@H](Nc1cc2c3c(c1)nc(-c1cncnc1)n3CCCO2)C1CC1 [Example 134, (S)-2-Cyclopropyl-2-((1-(pyrimidin-5-yl)-8,9-dihydro-7H-6-oxa-2,9a-diazabenzo[cd]azulen-4-yl)amino)acetamide] | 6.62
C[C@H](Oc1cc2c3c(c1)nc(-c1cc(F)c4oc(N)nc4c1F)n3CCCCO2)C(N)=O [Example 261, (S)-2-((1-(2-Amino-4,7-difluorobenzo[d]oxazol-5-yl)-7,8,9,10-tetrahydro-6-oxa-2,10a-diazacycloocta[cd]inden-4-yl)oxy)propanamide] | > 10.70
Cc1cc(-c2nc3cc(N[C@H](C(N)=O)C4CC4)cc4c3n2CCCO4)nc(CO)n1 [Example 123, (S)-2-Cyclopropyl-2-((1-(2-(hydroxymethyl)-6-methylpyrimidin-4-yl)-8,9-dihydro-7H-6-oxa-2,9a-diazabenzo[cd]azulen-4-yl)amino)acetamide] | 7.35
COC[C@@](C)(C(N)=O)n1cc(-c2cc3c4c(c2)nc(-c2ccc5oc(N)nc5c2)n4CCCO3)cn1 (single isomer, unassigned) [Example 233] | 9.92
Nc1nc2cc(-c3nc4cc(N[C@H]5C[C@H](F)C5)cc5c4n3CCCO5)ccc2o1 (single isomer, unassigned) [Example 202, 1-(2-Aminobenzo[d]oxazol-5-yl)-N-((1r,3r)-3-fluorocyclobutyl)-8,9-dihydro-7H-6-oxa-2,9a-diazabenzo[cd]azulen-4-amine] | 9.25
C[C@H](Nc1cc2c3c(c1)nc(N1CCC[C@@H](CO)C1)n3CCCO2)C(N)=O [Example 139, (S)-2-[1-((R)-3-Hydroxymethylpiperidin-1-yl)-8,9-dihydro-7H-6-oxa-2,9a-diazabenzo[cd]azulen-4-ylamino]propionamide] | 6.54
NC(=O)[C@@H](Nc1cc2c3c(c1)nc(-c1ccnc4c1OCO4)n3CCCO2)C1CC1 [Example 195, (S)-2-((1-([1,3]Dioxolo[4,5-b]pyridin-7-yl)-8,9-dihydro-7H-6-oxa-2,9a-diazabenzo[cd]azulen-4-yl)amino)-2-cyclopropylacetamide] | 6.71
NC(=O)[C@@H](Nc1cc2c3c(c1)nc(-c1cnn(CCO)c1)n3CCCO2)C1CC1 [Example 211, (S)-2-Cyclopropyl-2-((1-(1-(2-hydroxyethyl)-1H-pyrazol-4-yl)-8,9-dihydro-7H-6-oxa-2,9a-diazabenzo[cd]azulen-4-yl)amino)acetamide] | 6.09
NC(=O)[C@@H](Nc1cc2c3c(c1)nc(-c1ccc(OC(F)F)cc1)n3CCCO2)C1CC1 [Example 150, (S)-2-Cyclopropyl-2-((1-(4-(difluoromethoxy)phenyl)-8,9-dihydro-7H-6-oxa-2,9a-diazabenzo[cd]azulen-4-yl)amino)acetamide] | 6.31
NC(=O)[C@@H](Nc1cc2c3c(c1)nc(-c1cc(Cl)c4oc(N)nc4c1)n3CCCO2)C1CC1 [Example 209, (S)-2-((1-(2-Amino-7-chlorobenzo[d]oxazol-5-yl)-8,9-dihydro-7H-6-oxa-2,9a-diazabenzo[cd]azulen-4-yl)amino)-2-cyclopropylacetamide] | 10.02
CC(C)(C(N)=O)n1cc(-c2cc3c4c(c2)nc(-c2ccc5oc(N)nc5c2)n4CCCO3)cn1 [Example 124, 2-(4-(1-(2-Aminobenzo[d]oxazol-5-yl)-8,9-dihydro-7H-6-oxa-2,9a-diazabenzo[cd]azulen-4-yl)-1H-pyrazol-1-yl)-2-methylpropanamide] | 9.93
OCc1nc2cc(-c3nc4cc(Br)cc5c4n3CCCO5)ccc2o1 [Example 168, (5-(4-Bromo-8,9-dihydro-7H-6-oxa-2,9a-diazabenzo[cd]azulen-1-yl)benzo[d]oxazol-2-yl)methanol] | 6.40
CC[C@H](Oc1cc2c3c(c1)nc(-c1cc(F)c(-c4ncn[nH]4)cc1F)n3CCCCO2)C(N)=O [Example 295, (S)-2-((1-(2,5-Difluoro-4-(1H-1,2,4-triazol-5-yl)phenyl)-7,8,9,10-tetrahydro-6-oxa-2,10a-diazacycloocta[cd]inden-4-yl)oxy)butanamide] | 10.28
Nc1nc2cc(-c3nc4cc(N[C@H]5C[C@@H](F)C5)cc5c4n3CCCO5)ccc2o1 (single isomer, unassigned) [Example 203, 1-(2-Aminobenzo[d]oxazol-5-yl)-N-((1s,3s)-3-fluorocyclobutyl)-8,9-dihydro-7H-6-oxa-2,9a-diazabenzo[cd]azulen-4-amine] | 8.86
COC[C@](C)(C(N)=O)n1cc(-c2cc3c4c(c2)nc(-c2ccc5oc(N)nc5c2)n4CCCO3)cn1 (single isomer, unassigned) [Example 232] | 9.51
CNc1nc2cc(-c3nc4cc(N[C@@H](C)C(N)=O)cc5c4n3CCCO5)ccc2o1 [Example 185, (S)-2-((1-(2-(Methylamino)benzo[d]oxazol-5-yl)-8,9-dihydro-7H-6-oxa-2,9a-diazabenzo[cd]azulen-4-yl)amino)propanamide] | 8.70
C[C@H](Nc1cc2c3c(c1)nc(-c1ccncn1)n3CCCO2)C(N)=O [Example 109, (S)-2-((1-(pyrimidin-4-yl)-8,9-dihydro-7H-6-oxa-2,9a-diazabenzo[cd]azulen-4-yl)amino)propanamide] | 7.61
CC[C@H](C(N)=O)n1cc(-c2cc3c4c(c2)nc(-c2ccc5oc(N)nc5n2)n4CCCCO3)cn1 (single isomer, unassigned) [Example 302] | 9.99
NC(=O)[C@@H]1CCCN1c1cc2c3c(c1)nc(-c1ccc(-c4nc[nH]n4)cc1)n3CCCO2 [Example 221, (S)-1-(1-(4-(1H-1,2,4-Triazol-3-yl)phenyl)-8,9-dihydro-7H-6-oxa-2,9a-diazabenzo[cd]azulen-4-yl)pyrrolidine-2-carboxamide] | 9.63

The next lines start with the values.

pKi | Compound
9.83 | C[C@@H](C(N)=O)N(C)c1cc2c3c(c1)nc(-c1ccc4nc(N)sc4c1)n3CCCCO2 [Example 255, (S)-2-((1-(2-Aminobenzo[d]thiazol-6-yl)-7,8,9,10-tetrahydro-6-oxa-2,10a-diazacycloocta[cd]inden-4-yl)(methyl)amino)propanamide]
9.14 | NC(=O)[C@@H](Nc1cc2c3c(c1)nc(-c1ccc4nc(N)nn4c1)n3CCCO2)C1CC1 [Example 201, (S)-2-((1-(2-Amino-[1,2,4]triazolo[1,5-a]pyridin-6-yl)-8,9-dihydro-7H-6-oxa-2,9a-diazabenzo[cd]azulen-4-yl)amino)-2-cyclopropylacetamide]
9.21 | NC(=O)[C@@H](Nc1cc2c3c(c1)nc(-c1ccc4nc(N)sc4c1)n3CCCO2)C1CC1 [Example 170, (S)-2-((1-(2-Aminobenzo[d]thiazol-6-yl)-8,9-dihydro-7H-6-oxa-2,9a-diazabenzo[cd]azulen-4-yl)amino)-2-cyclopropylacetamide]
7.09 | NC(=O)c1ccc(-c2nc3cc(N[C@H](C(N)=O)C4CC4)cc4c3n2CCCO4)cc1F [Example 188, (S)-4-(4-((2-Amino-1-cyclopropyl-2-oxoethyl)amino)-8,9-dihydro-7H-6-oxa-2,9a-diazabenzo[cd]azulen-1-yl)-2-fluorobenzamide]
10.05 | C[C@H](Oc1cc2c3c(c1)nc(-c1cc(F)c4oc(N)nc4c1)n3CCCO2)C(N)=O [Example 258, (S)-2-((1-(2-Amino-7-fluorobenzo[d]oxazol-5-yl)-8,9-dihydro-7H-6-oxa-2,9a-diazabenzo[cd]azulen-4-yl)oxy)propanamide]
9.46 | C[C@@H](Oc1cc2c3c(c1)nc(-c1cc(F)c4oc(N)nc4c1)n3CCCO2)C(N)=O [Example 263, (R)-2-((1-(2-Amino-7-fluorobenzo[d]oxazol-5-yl)-8,9-dihydro-7H-6-oxa-2,9a-diazabenzo[cd]azulen-4-yl)oxy)propanamide]
8.26 | NC(=O)[C@H](Oc1cc2c3c(c1)nc(-c1ccc4nc(N)sc4c1)n3CCCCO2)C1CC1 (single isomer, unassigned) [Example 282]
> 10.70 | C[C@H](Oc1cc2c3c(c1)nc(-c1cc(F)c4nc(N)sc4c1)n3CCCCO2)C(N)=O [Example 242, (S)-2-((1-(2-Amino-4-fluorobenzo[d]thiazol-6-yl)-7,8,9,10-tetrahydro-6-oxa-2,10a-diazacycloocta[cd]inden-4-yl)oxy)propanamide]
> 10.70 | CC[C@H](Oc1cc2c3c(c1)nc(-c1ccc4oc(N)nc4c1)n3CCCCO2)C(N)=O [Example 271, (S)-2-((1-(2-Aminobenzo[d]oxazol-5-yl)-7,8,9,10-tetrahydro-6-oxa-2,10a-diazacycloocta[cd]inden-4-yl)oxy)butanamide]
7.79 | Cc1nc2cc(-c3nc4cc(N5CCCC5C(N)=O)cc5c4n3CCCO5)ccc2o1 (stereo not drawn) [Example 103, 1-(1-(2-methylbenzo[d]oxazol-5-yl)-8,9-dihydro-7H-6-oxa-2,9a-diazabenzo[cd]azulen-4-yl)pyrrolidine-2-carboxamide]
6.67 | NC(=O)[C@@H](Nc1cc2c3c(c1)nc(-c1ccc4ncncc4c1)n3CCCO2)C1CC1 [Example 119, (S)-2-Cyclopropyl-2-((1-(quinazolin-6-yl)-8,9-dihydro-7H-6-oxa-2,9a-diazabenzo[cd]azulen-4-yl)amino)acetamide]
